Data on 12 compounds can be found in PubChem BioAssay (NCI).

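Test compounds were applied to cells in 96-well plates for 48 hours at 5 doses. GI50 marks 50% less growth. At the TGI there is no net growth.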

Some test systems named below: EKVX NSCLC; HCT-116 colon; IGROV1 ovarian; LOX IMVI melanoma; NCI-H23 lung; NCI-H460 lung; NCI-H522 lung; SK-MEL-2 melanoma; SK-MEL-28 melanoma; U251 CNS.
Holding throughout (experiment): NCI-60 cell line screen, 48 h

In the case of `C1=Nc2ccccc2Cn2nncc21`, the TGI with EKVX NSCLC, with HCT-116 colon, in the test with IGROV1 ovarian, with LOX IMVI melanoma, with NCI-H23 lung and in the test with NCI-H460 lung was greater than 100 µM each time. Moreover, the TGI in the test with NCI-H522 lung, with SK-MEL-2 melanoma, with SK-MEL-28 melanoma and with U251 CNS was greater than 100 µM throughout.
`OC(c1ccccc1)C1CC2C=CC1C2` (centres undefined): the TGI with EKVX NSCLC, in the test with HCT-116 colon, in the test with IGROV1 ovarian, in the test on LOX IMVI melanoma, with NCI-H23 lung and with NCI-H460 lung was greater than 100 µM in each case. Also, the TGI in the test on NCI-H522 lung, in the test on SK-MEL-2 melanoma, in the test on SK-MEL-28 melanoma and in the test on U251 CNS was greater than 100 µM in each case.
In the case of `O=c1ccc2c(Cl)cccc2o1`, the TGI in the test with EKVX NSCLC, with HCT-116 colon, with IGROV1 ovarian, in the test on LOX IMVI melanoma, with NCI-H23 lung and in the test with NCI-H460 lung was greater than 100 µM each time. The TGI in the test on NCI-H522 lung, in the test on SK-MEL-2 melanoma, with SK-MEL-28 melanoma and in the test on U251 CNS was greater than 100 µM in each case.
For the compound `CCN(CC)CCCC(C)Nc1c2ccc(Cl)cc2nc2cc(Cl)ccc12` (centres undefined), the TGI came to 29.8 µM in the test with EKVX NSCLC; 7.56 µM in the test with HCT-116 colon; 19.5 µM in the test on IGROV1 ovarian; 6.94 µM with LOX IMVI melanoma; 20.8 µM in the test with NCI-H23 lung; 12 µM with NCI-H460 lung. In addition, the TGI with NCI-H522 lung was 17.5 µM; in the test with SK-MEL-2 melanoma, 29.2 µM; in the test with SK-MEL-28 melanoma, 15.8 µM; in the test on U251 CNS, 14.3 µM.
`Clc1ccc(C2CC(c3cccc(Nc4ccncc4)c3)=NN2c2ccccc2)cc1` (centres undefined): the GI50 with EKVX NSCLC is 1.58 µM; in the test with HCT-116 colon it was 1.48 µM; with IGROV1 ovarian it was 1.56 µM; in the test on LOX IMVI melanoma, 1.64 µM; in the test on NCI-H23 lung it was 1.92 µM; with NCI-H460 lung, 1.91 µM. Also, the GI50 in the test with NCI-H522 lung was 1.57 µM; in the test with SK-MEL-2 melanoma it was 1.98 µM; in the test on SK-MEL-28 melanoma, 1.77 µM; in the test on U251 CNS, 1.89 µM. Also, the TGI in the test on EKVX NSCLC came out at 3.12 µM; in the test on HCT-116 colon it was 2.98 µM; in the test on IGROV1 ovarian, 3.04 µM; with LOX IMVI melanoma, 3.06 µM; with NCI-H23 lung, 3.7 µM; in the test with NCI-H460 lung, 3.65 µM. For the same compound, the TGI stood at 3.24 µM with NCI-H522 lung, 3.84 µM with SK-MEL-2 melanoma, 3.24 µM in the test with SK-MEL-28 melanoma and 3.81 µM in the test on U251 CNS.
On to `CC(C(=O)NCCNC(=O)CCCC(=O)N(C)O)C(=O)NCCNC(=O)CCCC(=O)N(C)O`, for which the TGI in the test on EKVX NSCLC, with IGROV1 ovarian, in the test on LOX IMVI melanoma, in the test with NCI-H23 lung, with NCI-H460 lung and with NCI-H522 lung was greater than 100 µM in each case. In addition, the TGI with SK-MEL-2 melanoma, in the test with SK-MEL-28 melanoma and with U251 CNS was greater than 100 µM throughout.
Take `COc1ccc(N2C(=O)C(=O)N(C)C2=O)c2ccccc12`: the TGI in the test on EKVX NSCLC, in the test on HCT-116 colon, with IGROV1 ovarian, in the test on LOX IMVI melanoma, in the test on NCI-H23 lung and with NCI-H460 lung was greater than 10 µM in each case. Moreover, the TGI in the test with NCI-H522 lung, in the test on SK-MEL-2 melanoma, in the test with SK-MEL-28 melanoma and in the test with U251 CNS was greater than 10 µM throughout.
Consider `CSC1=C(SC)C(=O)c2cn(C)c(=O)cc2C1=O`, for which the TGI is 33.6 µM with EKVX NSCLC; 3.33 µM in the test with HCT-116 colon; 25.4 µM in the test on IGROV1 ovarian; 3.91 µM in the test with LOX IMVI melanoma; 11.1 µM with NCI-H23 lung; 32 µM in the test with NCI-H460 lung. For the same compound, the TGI was found to be 2.19 µM in the test with NCI-H522 lung, 17.1 µM with SK-MEL-2 melanoma, 6.69 µM in the test on SK-MEL-28 melanoma and 26.2 µM with U251 CNS.
For the compound `Fc1ccc(Nc2ncc(-c3cc(F)c(Cl)cc3Cl)s2)cc1Cl`, the GI50 was 16.3 µM in the test with EKVX NSCLC; 2.82 µM in the test with HCT-116 colon; 26.2 µM in the test with IGROV1 ovarian; 9.08 µM in the test with LOX IMVI melanoma; 14.1 µM in the test on NCI-H23 lung; 2.98 µM in the test on NCI-H460 lung. In addition, the GI50 with NCI-H522 lung was 20.8 µM; with SK-MEL-2 melanoma, 22.8 µM; in the test on SK-MEL-28 melanoma, 79.9 µM; with U251 CNS, 6.09 µM. In addition, the TGI was 31.3 µM in the test with EKVX NSCLC; 7.2 µM in the test with HCT-116 colon; greater than 100 µM with IGROV1 ovarian; 96 µM in the test with LOX IMVI melanoma; 28.1 µM in the test with NCI-H23 lung; 9.61 µM with NCI-H460 lung. Besides, the TGI in the test with NCI-H522 lung is 44.3 µM; in the test on SK-MEL-2 melanoma, 57.9 µM; in the test on SK-MEL-28 melanoma, greater than 100 µM; with U251 CNS it was 23.7 µM.
For `CC1(CO)C(O)CCC2(C)C1C(O)CC1CC3CC12CCC3(O)CO` (centres undefined), the TGI in the test with EKVX NSCLC, with HCT-116 colon, in the test on IGROV1 ovarian, in the test on LOX IMVI melanoma, in the test with NCI-H23 lung and in the test on NCI-H460 lung was greater than 225 µM in each case. For the same compound, the TGI in the test with NCI-H522 lung, in the test with SK-MEL-2 melanoma, with SK-MEL-28 melanoma and with U251 CNS was greater than 225 µM throughout.
Take `COC1=CC(=O)c2c(c(COC(C)=O)cn2C)C1=O`: the TGI with EKVX NSCLC was determined as 0.727 µM; in the test on HCT-116 colon it was 0.216 µM; in the test on IGROV1 ovarian, 0.443 µM; in the test with LOX IMVI melanoma it was 0.431 µM; in the test with NCI-H23 lung it was 0.417 µM; in the test with NCI-H460 lung, 0.835 µM. The TGI in the test with NCI-H522 lung was 0.0405 µM; with SK-MEL-2 melanoma it was 0.373 µM; in the test with SK-MEL-28 melanoma, 0.516 µM; in the test on U251 CNS, 0.734 µM.
For `CC(C)NC(=O)OCc1nnn2c1CCC2`, the TGI in the test on EKVX NSCLC, with HCT-116 colon, with IGROV1 ovarian, in the test on LOX IMVI melanoma, in the test on NCI-H23 lung and in the test with NCI-H460 lung was greater than 100 µM in each case. Also, the TGI with NCI-H522 lung, with SK-MEL-2 melanoma, with SK-MEL-28 melanoma and with U251 CNS was greater than 100 µM in each case.
